Assay results reported in patent publication US8962627B2, “Oxime derivatives and their use as allosteric modulators of metabotropic glutamate receptors” (Prestwick Chemical, Inc., priority 2009, dated 2015).
Counter-ions that a name gives are not always drawn.

Tested on: not given
Test: not given
Settings: not given
Compound `ON=c1cc(-c2cc3ccccc3cn2)oc2cccc(F)c12` [Example 9] has a melting point of 275 to 278 °C.
In the case of `O=c1[nH]c(-c2c/c(=N\O)c3ccccc3o2)cc2ccccc12` [Example 72, 3-{4-[(E)-Hydroxyimino]-4H-chromen-2-yl}-2H-isoquinolin-1-one], the melting point is reported as 310 to 315 °C (dec.).
For `Cl.ON=c1cc(-c2cc3cccn3cn2)oc2ccc(OCCNC3CCCC3)cc12`, the melting point was > 230 °C (dec.).
`ON=c1cc(-c2cc3ccccc3cn2)oc2cc(-c3ccc(-c4ccccc4)cc3)ccc12` [Example 48, 7-(4-biphenyl)-2-isoquinolin-3-yl-chromen-4-one oxime] showed a melting point of 283 to 285 °C.
With `CN1CCN(CCCNc2ccc3oc(-c4cc5ccccc5cn4)cc(=NO)c3c2)CC1` [Example 45, 2-isoquinolin-3-yl-6-[3-(4-methyl-piperazin-1-yl)-propylamino]-chromen-4-one oxime] the melting point was 208 to 211 °C.
In the case of `CN(C)CCOc1ccc2oc(-c3cc4cccn4cn3)cc(=NO)c2c1.Cl`, the melting point is reported as > 275 °C (dec.).
Compound `CN1CCN(CCOc2ccc3oc(-c4cc5ccccc5cn4)cc(=NO)c3c2)CC1` [Example 46, 2-isoquinolin-3-yl-6-[2-(4-methyl-piperazin-1-yl)-ethoxy]-chromen-4-one oxime] has a melting point of 233 to 236 °C.
Compound `Cc1cc2c(=NO)cc(-c3cc4ccccc4cn3)oc2cc1Br` [Example 3, 7-bromo-2-isoquinolin-3-yl-6-methyl-chromen-4-one oxime] has a melting point of 267 to 270 °C.
For `Cl.O=S1(=O)CCN(CCOc2ccc3oc(-c4cc5sccc5cn4)cc(=NO)c3c2)CC1`, the melting point was 195 to 197 °C.
With `ON=c1cc(-c2cc3cccn3cn2)oc2ccc(OCCn3ccnc3)cc12` (as salt: sodium) [Example 105, 6-(2-imidazol-1-O-ethoxy)-2-pyrrolo[1,2-c]pyrimidin-3-yl-chromen-4-one oxime] the melting point was > 250 °C (dec.).
Work on `Cl.ON=c1cc(-c2cc3sccc3cn2)oc2ccc(OCCN3CCc4ccccc4C3)cc12` yielded a melting point of 234 to 237 °C.
For `COc1ccc2cc(-c3cc(=NO)c4ccccc4o3)ncc2c1` [Example 13, 2-(7-methoxy-isoquinolin-3-yl)-chromen-4-one oxime], the melting point was 239 to 241 °C.
For `ON=c1cc(-c2cc3ccc(O)cc3cn2)oc2ccccc12` [Example 60, 2-(7-hydroxy-isoquinolin-3-yl)-chromen-4-one oxime], the melting point was 248 to 250 °C.
For `COc1cc2cnc(-c3cc(=NO)c4ccccc4o3)cc2cc1OC` [Example 14, 2-(6,7-dimethoxy-isoquinolin-3-yl)-chromen-4-one oxime], the melting point was 266 to 269 °C.
In the case of `CN(C)c1ccc(C#Cc2ccc3c(=NO)cc(-c4cc5ccccc5cn4)oc3c2)cc1` [Example 27, 7-(4-dimethylaminophenyl)ethynyl-2-isoquinolin-3-yl-chromen-4-one oxime], the melting point is reported as 235 to 240 °C.
`ON=c1cc(-c2cc3ccccc3cn2)oc2c(Cl)cccc12` [Example 8, 8-chloro-2-isoquinolin-3-yl-chromen-4-one oxime] gave a melting point of 270 to 272 °C.
`ON=c1cc(-c2ncc3ccccc3n2)oc2ccccc12` [Example 110, 2-quinazolin-2-yl-chromen-4-one oxime] gave a melting point of 239 to 241 °C.
For `ON=c1cc(-c2cc3ccccc3cn2)oc2cc(C#Cc3ccccc3Cl)ccc12` [Example 32, 7-(2-chlorophenyl)ethynyl-2-isoquinolin-3-yl-chromen-4-one oxime], the melting point was 292 to 297 °C.
`Cc1cc2c(=NO)cc(-c3cc4ccccc4cn3)oc2cc1C#Cc1ccccc1` [Example 25] gave a melting point of 248 to 250 °C.
With `N#Cc1ccc2oc(-c3cc4ccccc4cn3)cc(=NO)c2c1` [Example 38, 6-cyano-2-isoquinolin-3-yl-chromen-4-one oxime] the melting point was 280 °C (dec.).
`COc1cccc2cnc(-c3cc(=NO)c4ccccc4o3)cc12` [Example 19, 2-(5-methoxy-isoquinolin-3-yl)-chromen-4-one oxime] gave a melting point of 245 to 247 °C.
For `CN(C)CCCOc1ccc2oc(-c3cc4cccn4cn3)cc(=NO)c2c1.Cl`, the melting point was > 270 °C (dec.).
`ON=c1cc(-c2cc3ccc(F)cc3cn2)oc2ccccc12` [Example 12, 2-(7-fluoro-isoquinolin-3-yl)-chromen-4-one oxime] gave a melting point of 233 to 235 °C.
With `ON=c1cc(-c2cc3cc[nH]c3cn2)oc2ccccc12` [Example 75, 2-(1H-Pyrrolo[2,3-c]pyridin-5-yl)-chromen-4-one oxime] the melting point was 270 to 275 °C (dec.).
For `ON=c1cc(-c2cc3c(Br)cccc3cn2)oc2ccccc12` [Example 17, 2-(5-bromo-isoquinolin-3-yl)-chromen-4-one oxime], the melting point was 268 to 270 °C.
`ON=c1cc(-c2cc3sccc3cn2)oc2ccc(OCCc3ccc(F)cc3)cc12` (as salt: hydrochloride) [Example 130, 6-[2-(4-Fluoro-phenyl)-ethoxy]-2-thieno[3,2-c]pyridin-6-yl-chromen-4-one oxime] gave a melting point of 228 to 234 °C.
`Cl.ON=c1cc(-c2cc3sccc3cn2)oc2ccc(OCCN3CCCOCC3)cc12` showed a melting point of 223 to 226 °C.
In the case of `CN1CCN(CCCNc2ccc3c(=NO)cc(-c4cc5ccccc5cn4)oc3c2)CC1` [Example 49, 2-isoquinolin-3-yl-7-[3-(4-methyl-piperazin-1-yl)-propylamino]-chromen-4-one oxime], the melting point is reported as 228 to 233 °C.
For `ON=c1cc(-c2cc3c(cn2)ncn3Cc2ccccc2)oc2ccccc12` [Example 68, 2-(1-Benzyl-1H-imidazo[4,5-c]pyridin-6-yl)-chromen-4-one oxime], the melting point was 148 to 150 °C.
`ON=c1cc(-c2cc3ccccc3cn2)oc2cc(-c3ccccc3)ccc12` [Example 47, 2-isoquinolin-3-yl-7-phenyl-chromen-4-one oxime] showed a melting point of 275 to 278 °C.
For `ON=c1cc(-c2cc3ccccc3cn2)oc2c(F)cc(F)cc12` [Example 7, 6,8-difluoro-2-isoquinolin-3-yl-chromen-4-one oxime], the melting point was 253 to 256 °C.
With `ON=c1cc(-c2cc3cccn3cn2)oc2ccc(OCCc3ccc(F)cc3)cc12` (as salt: hydrochloride) [Example 109, 6-[2-(4-fluoro-phenyl)-ethoxy]-2-pyrrolo[1,2-c]pyrimidin-3-yl-chromen-4-one oxime, hydrochloride] the melting point was 234 to 236 °C.
With `Nc1cccc(C#Cc2ccc3c(=NO)cc(-c4cc5ccccc5cn4)oc3c2)c1` [Example 29, 7-(3-aminophenyl)ethynyl-2-isoquinolin-3-yl-chromen-4-one oxime] the melting point was 272 to 275 °C.
For `Cl.NCCOc1ccc2oc(-c3cc4cccn4cn3)cc(=NO)c2c1`, the melting point was > 270 °C (dec.).
With `CCN1CCN(CCOc2ccc3oc(-c4cc5cccn5cn4)cc(=NO)c3c2)CC1.Cl.Cl` [Example 121] the melting point was > 240 °C (dec.).
`ON=c1cc(-c2cc3ccc(Cl)cc3cn2)oc2ccccc12` [Example 16, 2-(7-chloro-isoquinolin-3-yl)-chromen-4-one oxime] gave a melting point of 260 to 261 °C.
With `Cc1cc(C)n2cnc(-c3cc(=NO)c4ccccc4o3)cc12` [Example 64, 2-(5,7-dimethyl-Pyrrolo[1,2-c]pyrimidin-3-yl)-chromen-4-one oxime] the melting point was > 250 °C (dec.).

Target: T1, human mGluR4 transiently over-expressed in HEK-293 cells (Homo sapiens, UniProt Q14833)
T1 construct: expressed in transfected cells; host or cells: HEK-293 cells, transient co-transfection by electroporation
T1 sequence (Q14833 33-912): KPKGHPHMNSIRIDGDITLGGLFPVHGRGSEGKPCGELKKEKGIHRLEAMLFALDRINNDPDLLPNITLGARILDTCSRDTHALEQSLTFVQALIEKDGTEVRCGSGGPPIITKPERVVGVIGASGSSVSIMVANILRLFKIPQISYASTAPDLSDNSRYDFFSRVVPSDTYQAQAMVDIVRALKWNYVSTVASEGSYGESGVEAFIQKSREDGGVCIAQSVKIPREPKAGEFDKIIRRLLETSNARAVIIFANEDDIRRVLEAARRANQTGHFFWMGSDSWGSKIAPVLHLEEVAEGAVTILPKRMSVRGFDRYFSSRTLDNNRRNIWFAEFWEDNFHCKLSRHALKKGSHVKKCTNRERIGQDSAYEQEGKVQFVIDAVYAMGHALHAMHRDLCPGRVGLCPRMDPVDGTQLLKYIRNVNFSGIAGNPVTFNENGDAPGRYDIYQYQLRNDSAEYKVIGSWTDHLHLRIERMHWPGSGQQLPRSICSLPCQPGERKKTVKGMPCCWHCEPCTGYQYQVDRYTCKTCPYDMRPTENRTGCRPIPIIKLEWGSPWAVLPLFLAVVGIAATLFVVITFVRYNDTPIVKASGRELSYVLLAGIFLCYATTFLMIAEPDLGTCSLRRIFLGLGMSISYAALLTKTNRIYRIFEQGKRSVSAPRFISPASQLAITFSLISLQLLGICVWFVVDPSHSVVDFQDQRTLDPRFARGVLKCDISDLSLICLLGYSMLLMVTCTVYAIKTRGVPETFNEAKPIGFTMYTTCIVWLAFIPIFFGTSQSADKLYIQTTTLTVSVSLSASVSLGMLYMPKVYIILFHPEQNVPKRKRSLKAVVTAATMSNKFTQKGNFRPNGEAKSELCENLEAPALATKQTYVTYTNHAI
Test: Human mGluR4 positive allosteric modulator evaluation using Ca++ functional assay
Format: cell-based
Settings: HEK-293 cells co-transfected with hmGluR4 and chimeric G protein; EC10 glutamate; intracellular calcium (Fluo4AM); read-out: mean EC50 of agonist/positive allosteric modulator activity on mGluR4
Experimental: Human mGluR4 Positive Allosteric Modulator Evaluation Using Ca^++ Functional Assay
Compounds of the present invention were tested successively for their agonist and positive allosteric modulator activities on human mGluR4 transiently over-expressed in HEK-293 cells. They exert agonist activity if, by themselves in absence of the endogenous glutamate, they are able to activate mGluR4; and they exert positive allosteric modulator activity if they increase the action of the endogenous glutamate.
Cell Culture and Transfection
HEK-293 cells were maintained in Modified Eagle's Medium supplemented with 10% Foetal Calf Serum, 1% Penicillin/Streptomycin and 1% non essential amino acids at 37° C./5% CO2.
Cells were co-transfected by electroporation with two DNA plasmids encoding hmGluR4 and a chimeric G protein allowing redirection of the activation signal to intracellular calcium pathway. Cells were plated after transfection onto polyornithine coated, clear bottom, black-walled, 96-well plates and cultured for 24 h.
Calcium Assay EC50 Determination
Receptor activity was detected by changes in intracellular calcium measured using the fluorescent Ca^2+ sensitive dye, Fluo4AM (Molecular Probes).
The day of the assay, medium was aspirated and replaced during 3 hours by medium without serum supplemented with 1% Glutamax, 1% Penicillin/Streptomycin and 1% non essential amino acids. Then, cells were washed with freshly prepared buffer B (HBSS 1×(PAA), Hepes 20 mM, MgSO4-7H2O 1 mM, Na2CO3 3.3 mM, CaCl2-2H2O 1.3 mM, 0.5% BSA, Probenecid 2.5 mM) and loaded at 37° C. in 5% CO2 for 1.5 hours with buffer B containing 1 μM Fluo4AM 0.1 mg/mL Pluronic Acid, 7 μg/mL Glutamate Pyruvate Transaminase and 2 mM sodium pyruvate. Afterwards cells were washed twice with buffer B and 50 μL of this buffer were added to each well. Addition of compounds and intracellular Ca^2+ measurements (excitation 485 nm, emission 525 nm) were performed by the fluorescence microplate reader FlexStation (Molecular Devices).
Agonist and positive allosteric modulator activities of compounds were consecutively evaluated on the same cells plate. Agonist activity was first tested during 60 s with the addition of compound alone on the cells. Then, the cells were stimulated by an EC10 glutamate concentration and fluorescence recorded for additional 60 s. EC10 glutamate concentration is the concentration giving 10% of the maximal glutamate response. Agonist and/or positive allosteric modulator activity(ies) were evaluated in comparison to basal signal evoked by EC10 glutamate alone.
For EC50 determination, a dose-response test was performed using 6 to 9 concentrations of each compound of the invention. Dose-response curves were fitted using the sigmoidal dose-response (variable slope) analysis in GraphPad Prism program (Graph Pad Inc) and EC50 of agonist/positive allosteric modulator activity was calculated. Dose-response experiments were all performed in duplicate, two times independently.
For `COCCOc1ccc2oc(-c3cc4cccn4cn3)cc(=NO)c2c1` [Example 67, 6-methoxyethoxy-2-Pyrrolo[1,2-c]pyrimidin-3-yl-chromen-4-one oxime], the EC50 was less than 1 µM.
`ON=c1cc(-c2cc3cccn3cn2)oc2ccc(OCCCOc3ccccc3)cc12` [Example 162, 6-(3-Phenoxy-propoxy)-2-pyrrolo[1,2-c]pyrimidin-3-yl-chromen-4-one oxime] showed an EC50 of less than 1 µM.
With `O=C(COc1ccc2oc(-c3cc4cccn4cn3)cc(=NO)c2c1)Nc1ccc(F)cn1` [Example 152, N-(5-Fluoro-pyridin-2-yl)-2-{4-hydroxyimino-2-pyrrolo[1,2-c]pyrimidin-3-yl-4H-chromen-6-yloxy}-acetamide] the EC50 was less than 1 µM.
Compound `ON=c1cc(-c2cc3cccn3cn2)oc2ccc(/C=C\CN3CCOCC3)cc12` [Example 107] has an EC50 of less than 1 µM.
